Tests used:
[1] = test system: MOLM13, MV411, ML2, and HL60 cell lines; test: Cell viability, live cell count by Trypan blue exclusion; assay type: cell-based, human; conditions: 10 μM and 20 μM every 48 hours for 6 days
Procedure: Cell culture. The human AML lines MV411, MOLM13, ML2, and HL60 were obtained from the American Type Culture Collection (ATCC, Manassas, Va., USA). Umbilical cord blood was obtained from the New York Blood Center. The identity of all cell lines was verified by STR analysis (Genetica DNA Laboratories, Burlington, N.C., USA) and absence of Mycoplasma sp. contamination was determined using Lonza MycoAlert (Lonza Walkersville, Inc., Walkersville, Md., USA). Cell lines were cultured in 5% CO2 in a humidified atmosphere at 37° C. in RPMI medium supplemented with 10% fetal bovine serum (FBS) and antibiotics (100 U/ml penicillin and 100 μg/ml streptomycin). Cell viability analysis. Cells were resuspended and plated at a concentration of 2×10^5 cells in 200 μL in 96-well tissue culture plates. Media with peptides was replaced every 48 hours. To assess the number of viable cells, cells were resuspended in PBS and 10 μL mixed in a 1:1 ratio with 0.4% Trypan Blue (Thermo Fisher) and counted using a hematocytometer (Hausser Scientific, Horsham, Pa., USA). To assess viability using an ATP-based assay, cell viability was assessed using the CellTiter-Glo Luminescent Viability assay, according to the manufacturer's instructions (Promega). Luminescence was recorded using the Infinite M1000Pro plate reader using integration time of 250 milliseconds (Tecan).

MOLM13 cells = test: Giemsa staining of cells for morphology; assay type: cell-based, human; conditions: 20 μM, 6 hours
Procedure: Giemsa staining of cells for Morphology. MOLM13 cells were resupended to a concentration of 1×10^6 cells in 1 milliliter of PBS. Using the benchtop Cytospin Centrifuge instrument (ThermoFisher Scientific), 200 uL of the cell suspension was applied white clipped Cytofunnels (ThermoFisher Scientific) to glass microscope slides (2×10^5 cells/slide). Dip Quick Stain (J-322, Jorgensen Laboratories, Inc) was used for per manufacturer's protocol for the polychromic stain of cells.

[2] = test system: MYB-dependent gene expression; test: RNA-seq gene expression after peptide treatment; assay type: cell-based, human
[3] = test system: MYC and BCL2 mRNA expression; test: RT-qPCR of BCL2 and MYC mRNA normalized to GAPDH; assay type: cell-based; conditions: human AML cell lines
Procedure: Quantitative RT-PCR. RNA was isolated using Trizol reagent according to the manufacturer's instructions (Life Technologies). Complementary DNA was synthesized using the SuperScript III First-Strand Synthesis system according to the manufacturer's instructions (Invitrogen). Quantitative real-time PCR was performed using the KAPA SYBR FAST PCR polymerase with 20 ng template and 200 nM primers, according to the manufacturer's instructions (Kapa Biosystems, Wilmington, Mass., USA). PCR primers are listed below. Ct values were calculated using ROX normalization using the ViiA 7 software (Applied Biosystems).

MV411 cells = test: CellTiter Glo viability of MV411 cells with ectopic BCL2 expression; assay type: cell-based, human; conditions: MV411 cells with MSCV-Ires-GFP BCL2 vector
[4] = test system: primary MLL-rearranged AML; test: Primary patient derived xenograft, hCD45 staining of bone marrow; assay type: in vivo, NSG mice; conditions: 25 mg/kg daily intraperitoneal, 21 days
Procedure: Mouse studies. All mouse experiments were carried out in accordance with institutional animal protocols. Two hundred thousand primary AML MLL-rearranged leukemia cells were suspended in […] of PBS and transplanted via tail vein injection into 8-week-old sublethally irradiation (200 rad) female NOD.Cg-Prkdc(scid)Il2rg(tm1Wjl)/SzJ mice (The Jackson Laboratory, Bar Harbor, Me., USA). Recipient mice were maintained on antibiotic supplementation in chow (0.025% trimethoprim, 0.124% sulfamethoxazole, Sulfatrim). Three days after transplant, mice were randomly assigned to experimental treatment groups. […]

[5] = test system: primary patient-derived MLL-rearranged leukemia cells; test: Primary patient derived xenograft, survival analysis; assay type: in vivo, NSG mice; conditions: 50 mg/kg daily intraperitoneal, days 3-17, log-rank p=0.0038
Procedure: Mouse studies. All mouse experiments were carried out in accordance with institutional animal protocols. Two hundred thousand primary AML MLL-rearranged leukemia cells were suspended in […] of PBS and transplanted via tail vein injection into 8-week-old sublethally irradiation (200 rad) female NOD.Cg-Prkdc(scid)Il2rg(tm1Wjl)/SzJ mice (The Jackson Laboratory, Bar Harbor, Me., USA). Recipient mice were maintained on antibiotic supplementation in chow (0.025% trimethoprim, 0.124% sulfamethoxazole, Sulfatrim). Three days after transplant, mice were randomly assigned to experimental treatment groups. MYBMIM peptide suspended in PBS was administered daily through intraperitoneal injection at a daily dose of 50 mg/kg. Mice were treated from days 3-17 of this study for a total of 14 days and then monitored daily with clinical examination for survival analysis.
Statistical Analysis. For comparisons between two sample sets, statistical analysis of means was performed using 2-tailed, unpaired Student's t-tests. Survival analysis was done using the Kaplan-Meier method, as assessed using a log-rank test. For gene expression analysis, statistical significance was assessed using paired t-tests.

[6] = test system: H3K27Ac-driven oncogenic enhancers; test: ChIP-seq of H3K27Ac enhancers in AML cells; assay type: cell-based, human
Procedure: Chromatin immunoprecipitation and sequencing (ChIP-seq). Briefly, cells were fixed in 1% formalin in phosphate-buffered saline (PBS) for 10 minutes at room temperature. Glycine (125 mM final concentration) and Tris-HCl pH 8 (100 mM final concentration) was added to the cells and cells were washed twice in ice-cold PBS and resuspended in sodium dodecyl sulfate (SDS) lysis buffer (1% SDS, 10 mM EDTA, 50 mM Tris-HCl, pH 8.1). Lysates were sonicated using the Covaris […] adaptive focused sonicator to obtain 100-500 bp chromatin fragments (Covaris, Woburn, Calif.). Lysates containing sheared chromatin fragments were resuspended in 0.01% SDS, 1.1% Triton-X100, 1.2 mM EDTA, 16.7 mM Tris-HCl, pH 8.1, 167 mM NaCl. Lysates and antibody-coupled beads were incubated over night at 4° C. Precipitates were washed sequentially with Mixed Micelle Wash Buffer (15 ml 5M NaCl-150 mM Final, 10 ml 1M Tris-Cl pH 8.1, 5 ml 0.5M EDTA, pH 8.0, 40 ml 65% w/v sucrose, 1 ml 10% NaN3, 25 ml 20% Triton X-100, 10 ml 10% SDS, Add dH2O to 500 ml), LiCl washing solution (0.5% deoxycholic acid, 1 mM EDTA, 250 mM LiCl, 0.5% NP-40, 10 mM Tris-Cl pH 8.0, 0.2% NaN3) and then TBS buffer (20 mM Tris-Cl pH 7.4, 150 mM NaCl). Elution performed in elution buffer (1% SDS, 0.1 M NaHCO3). […] Libraries were sequenced on the Illumina HiSeq 2500 instruments, with 30 million 2×50 bp paired reads.

CC[C@@H](C)[C@@H](NC(=O)[C@@H](CCCCN)NC(=O)[C@@H](CCC(=O)O)NC(=O)[C@@H](CC(C)C)NC(=O)[C@@H](CCC(=O)O)NC(=O)[C@@H](CC(C)C)NC(=O)[C@@H](CC(C)C)NC(=O)[C@@H](CC(C)C)NC(=O)[C@@H](CCSC)NC(=O)[C@@H](CO)NC(=O)[C@H](NC(=O)[C@@H](CCC(=O)O)NC(=O)[C@@H](CC(N)=O)NC(=O)[C@@H](CCC(=O)O)NC(=O)[C@@H](CC(C)C)NC(=O)[C@@H](CCCCN)NC(C)=O)[C@H](C)O)C(=O)N[C@H](CCCNC(=N)N)C(=O)N[C@H](CCCCN)C(=O)NCC(=O)NCC(=O)N[C@H](CCCNC(=N)N)C(=O)N[C@H](CCCNC(=N)N)C(=O)N[C@H](CCCNC(=N)N)C(=O)N[C@H](CCC(N)=O)C(=O)N[C@H](CCCNC(=N)N)C(=O)N[C@H](CCCNC(=N)N)C(=O)N[C@H](CCCCN)C(=O)N[C@H](CCCCN)C(=O)N[C@H](CCCNC(=N)N)C(=O)NCC(=O)N[C@H](Cc1ccc(O)cc1)C(N)=O [MYBMIM]
AML cell death (live cells on Day 6) [1]: induction of AML cell death | cell morphology (MOLM13 cells): induces cell death without morphologic evidence of differentiation | MYC and BCL2 expression (volcano plot) ([2]; MV411 cells, MYBMIM vs control): significantly downregulated | MYB-dependent gene expression (RNA-seq) ([2]; human AML cells, 6 hours, 20 μM, vs TG3 and control): significant down-regulation | MYC and BCL2 mRNA expression as a percentage of GAPDH [3]: downregulation | rescue of peptide-induced apoptosis by ectopic Bcl2 expression (cell viability) (MV411 cells): partial rescue | leukemia burden in bone marrow (hCD45 staining) [4]: decrease in the leukemia burden | survival of mice (Kaplan-Meier) [5]: prolongs survival | survival of mice (Kaplan-Meier) ([5]; listed as SEQ ID NO:1): impeded leukemia progression and extended survival | H3K27Ac-driven oncogenic enhancers [6]: obliteration

From US11208446B2, “Agents and methods for treating CBP-dependent cancers” (priority 2016, dated 2021)
